In patent US11351178B2, “Selective HDAC6 inhibitors” (ITALFARMACO S.P.A., priority 2017, dated 2022):
pIC50: −log10 of the molar value.

What was measured:
HDAC7 = molecular target: T1, HDAC7 (Homo sapiens, UniProt Q8WUI4); assay: Enzymatic test HDAC7; type: biochemical; details: Table 3
T1 construct: purchased BPS 50007
T1 sequence (Q8WUI4 518-952 limits assumed): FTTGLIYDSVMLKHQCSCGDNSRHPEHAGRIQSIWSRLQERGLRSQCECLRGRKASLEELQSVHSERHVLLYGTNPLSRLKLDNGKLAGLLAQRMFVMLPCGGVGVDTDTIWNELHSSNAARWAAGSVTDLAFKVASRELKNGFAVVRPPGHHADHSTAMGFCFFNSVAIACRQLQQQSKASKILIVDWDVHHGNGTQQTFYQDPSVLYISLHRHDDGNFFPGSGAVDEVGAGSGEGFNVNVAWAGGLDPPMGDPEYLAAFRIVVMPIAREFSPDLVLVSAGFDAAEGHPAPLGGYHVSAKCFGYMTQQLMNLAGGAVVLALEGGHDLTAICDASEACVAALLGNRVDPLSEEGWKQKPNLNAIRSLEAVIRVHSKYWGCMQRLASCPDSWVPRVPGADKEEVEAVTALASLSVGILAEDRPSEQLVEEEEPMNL
Experimental: (§1) After a period of incubation at 30° C. (incubation times vary for different isoforms and are shown in table 1) 25 μL of solution containing the substrate were added. As substrate, FLUOR DE LYS® deacetylase substrate (Enzo Life Sciences, cat #BML-K1104, FdL), FLUOR DE LYS®-Green substrate (Enzo Life Sciences, cat #BML-K1572 FdL_G) and trifluoroacetyl-L-lysine (Tfal)-2× concentrated solution in 25 mM Tris-HCl, pH 8, 130 mM NaCl 0.05% Tween-20 10% glycerol) were used. Following a reaction period at 30° C.

HDAC4 = molecular target: T2, HDAC4 (Homo sapiens, UniProt P56524); assay: Enzymatic test HDAC4; type: biochemical; details: Table 3
T2 construct: purchased BPS 50004
Experimental: as §1

[1] = test system: B 697 promyelocytic cell line; assay: Cytotoxicity on 697 cell line (CellTiter 96); type: cell-based; details: 72 hours incubation, read-out: 697 TOXICITY
Method in brief: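 Mitochondrial-function readout (CellTiter 96 Aqueous One) after 72 h compound exposure, begun 24 h post-seeding. Dose ranges: 697 cells, 1 to 10000 nM at 2×10^4 cells/well; PBMCs, 1.5 to 10000 nM at 5×10^5 cells/well.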

HDAC2 = molecular target: T3, HDAC2 (Homo sapiens, UniProt Q92769); assay: Enzymatic test HDAC2; type: biochemical; details: Table 3
T3 construct: purchased BPS 50002

HDAC10 = molecular target: T4, HDAC10 (Homo sapiens, UniProt Q969S8); assay: Enzymatic test HDAC10; type: biochemical; details: Table 3
T4 construct: purchased BPS 50010
T4 sequence (Q969S8 1-669): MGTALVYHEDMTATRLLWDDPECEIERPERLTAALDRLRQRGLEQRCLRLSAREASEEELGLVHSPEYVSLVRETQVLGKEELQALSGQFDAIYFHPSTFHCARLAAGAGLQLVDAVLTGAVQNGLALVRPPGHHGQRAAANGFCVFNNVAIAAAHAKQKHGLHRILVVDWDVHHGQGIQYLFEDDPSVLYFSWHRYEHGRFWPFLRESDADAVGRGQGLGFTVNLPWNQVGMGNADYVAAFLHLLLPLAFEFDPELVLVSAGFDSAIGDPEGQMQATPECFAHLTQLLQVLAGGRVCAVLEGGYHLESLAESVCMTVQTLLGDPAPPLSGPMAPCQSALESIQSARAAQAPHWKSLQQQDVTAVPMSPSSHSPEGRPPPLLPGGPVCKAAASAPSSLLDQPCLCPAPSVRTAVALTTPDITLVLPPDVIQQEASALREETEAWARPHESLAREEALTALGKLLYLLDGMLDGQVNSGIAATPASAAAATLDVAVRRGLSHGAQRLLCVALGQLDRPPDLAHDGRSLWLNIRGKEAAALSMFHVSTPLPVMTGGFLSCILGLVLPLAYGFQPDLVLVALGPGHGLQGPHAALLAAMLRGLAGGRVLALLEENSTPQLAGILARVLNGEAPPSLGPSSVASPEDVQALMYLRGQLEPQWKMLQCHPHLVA

HDAC8 = molecular target: T5, HDAC8 (Homo sapiens, UniProt Q9BY41); assay: Enzymatic test HDAC8; type: biochemical; details: Table 3
T5 construct: purchased BPS 50008
T5 sequence (Q9BY41 1-377): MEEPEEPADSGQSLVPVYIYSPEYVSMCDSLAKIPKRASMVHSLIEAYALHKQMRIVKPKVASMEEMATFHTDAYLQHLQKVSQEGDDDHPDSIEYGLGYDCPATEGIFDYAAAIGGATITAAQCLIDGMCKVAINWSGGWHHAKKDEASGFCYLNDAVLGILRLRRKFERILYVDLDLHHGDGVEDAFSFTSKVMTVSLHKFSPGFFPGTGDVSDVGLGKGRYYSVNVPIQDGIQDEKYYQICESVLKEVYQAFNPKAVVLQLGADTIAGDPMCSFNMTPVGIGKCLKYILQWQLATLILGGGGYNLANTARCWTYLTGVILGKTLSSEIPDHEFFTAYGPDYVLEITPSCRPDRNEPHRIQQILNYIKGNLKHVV

HDAC5 = molecular target: T6, HDAC5 (Homo sapiens, UniProt Q9UQL6); assay: Enzymatic test HDAC5; type: biochemical; details: Table 3
T6 construct: purchased BPS 50005
Experimental: as §1

[2] = Stability in human plasma; type: in vitro ADME; details: after 4 hours, 37° C.
Method in brief: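 Compounds incubated at 37° C in rat or human plasma at 50 μM (UV/HPLC) or 1 or 2 μM (LC-MS/MS) for 0–4 h. Reaction stopped with acidified acetonitrile on ice; percent remaining versus initial amount and plasma half-life calculated.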

[3] = Stability to Phase I metabolism in human S9 liver fraction; type: in vitro ADME
Method in brief: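 Phase I stability in human and rat hepatic S9 at 37 °C, sampled up to 90 min. Samples were stopped with acidified acetonitrile on ice, then quantified by HPLC-UV or LC-MS/MS.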

[4] = human liver S9 fraction, after 90 min, 37° C.

T6 sequence (Q9UQL6 656-1122 limits assumed): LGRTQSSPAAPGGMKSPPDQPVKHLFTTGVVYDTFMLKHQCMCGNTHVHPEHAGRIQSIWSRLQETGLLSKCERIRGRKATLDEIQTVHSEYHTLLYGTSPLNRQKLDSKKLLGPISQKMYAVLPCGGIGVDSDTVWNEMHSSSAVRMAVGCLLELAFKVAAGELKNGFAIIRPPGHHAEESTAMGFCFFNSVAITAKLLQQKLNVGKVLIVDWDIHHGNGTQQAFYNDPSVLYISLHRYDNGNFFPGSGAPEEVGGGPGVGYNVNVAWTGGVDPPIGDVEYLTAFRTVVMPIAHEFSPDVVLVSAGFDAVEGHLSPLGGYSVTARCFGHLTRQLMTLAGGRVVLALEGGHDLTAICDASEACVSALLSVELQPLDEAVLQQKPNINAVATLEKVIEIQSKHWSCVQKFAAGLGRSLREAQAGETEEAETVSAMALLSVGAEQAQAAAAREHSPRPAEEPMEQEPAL
T3 sequence (Q92769 whole entry): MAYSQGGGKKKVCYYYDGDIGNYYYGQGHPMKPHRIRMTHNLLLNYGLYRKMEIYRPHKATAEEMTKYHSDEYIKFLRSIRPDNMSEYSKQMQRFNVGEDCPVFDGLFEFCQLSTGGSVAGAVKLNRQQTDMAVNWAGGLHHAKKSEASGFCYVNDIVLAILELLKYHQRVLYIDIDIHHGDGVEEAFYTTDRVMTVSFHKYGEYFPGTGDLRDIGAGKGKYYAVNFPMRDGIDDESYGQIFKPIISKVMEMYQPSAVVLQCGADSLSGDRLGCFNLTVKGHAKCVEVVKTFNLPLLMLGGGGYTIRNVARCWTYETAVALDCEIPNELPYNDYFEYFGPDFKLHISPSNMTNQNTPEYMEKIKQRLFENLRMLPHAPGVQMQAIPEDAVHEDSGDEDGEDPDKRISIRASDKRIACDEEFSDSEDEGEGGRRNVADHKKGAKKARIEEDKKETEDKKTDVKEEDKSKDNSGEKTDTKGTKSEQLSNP
T2 sequence (P56524 627-1084 limits assumed): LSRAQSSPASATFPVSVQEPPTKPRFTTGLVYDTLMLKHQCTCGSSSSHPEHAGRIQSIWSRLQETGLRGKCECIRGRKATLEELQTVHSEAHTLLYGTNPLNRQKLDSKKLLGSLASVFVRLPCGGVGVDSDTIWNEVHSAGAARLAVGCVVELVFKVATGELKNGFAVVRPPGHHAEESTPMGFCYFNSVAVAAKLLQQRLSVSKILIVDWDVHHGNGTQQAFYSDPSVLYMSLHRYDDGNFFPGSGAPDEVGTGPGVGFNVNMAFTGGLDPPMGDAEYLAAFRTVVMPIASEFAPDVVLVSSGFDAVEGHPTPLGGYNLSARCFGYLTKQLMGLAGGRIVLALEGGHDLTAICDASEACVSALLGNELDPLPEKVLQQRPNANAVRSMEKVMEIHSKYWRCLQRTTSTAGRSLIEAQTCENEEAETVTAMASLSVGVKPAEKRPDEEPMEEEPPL

Structure (SMILES)	pIC50 (HDAC7)	pIC50 (HDAC4)	pIC50 (HDAC2)	pIC50 (HDAC10)	pIC50 (HDAC8)	pIC50 (HDAC5)	residual percentage in human S9 fraction ([3]; human, 90 min, pH 7.4) [%]	pIC50 [1]	residual percentage in human plasma [2] [%]	residual percentage in human S9 fraction [3, 4] [%]
O=C(NO)c1cc(F)c(Cn2nnc(-c3ccco3)n2)c(F)c1 [comp. 19, 3,5-difluoro-4-((5-(furan-2-yl)-2H-tetrazol-2-yl)methyl)-N-hydroxybenzamide]	5.99	6.17	5.02	5.57	6.19	6.22	–	5.93	100	94
O=C(NO)c1cc(F)c(Cn2nnnc2-c2ccccn2)c(F)c1 [comp. 13, 3,5-difluoro-N-hydroxy-4-((5-(pyridin-2-yl)-1H-tetrazol-1-yl)methyl)benzamide]	6.21	6.22	4.94	5.57	6.31	6.29	98	–	94	–
Cn1c(Sc2ccc(C(=O)NO)cc2)nnc1-c1cccs1 [comp. 10, N-hydroxy-4-((4-methyl-5-(thiophen-2-yl)-4H-1,2,4-triazol-3-yl)thio)benzamide]	6.09	5.60	5.35	5.55	6.30	5.57	–	5.36	99	95
CCN(CC)S(=O)(=O)c1cccc(-c2nnc(Sc3ccc(C(=O)NO)cc3)n2C)c1 [comp. 66, 4-[[5-[3-(diethylsulfamoyl)phenyl]-4-methyl-1,2,4-triazol-3-yl]sulfanyl]benzenecarbohydroxamic acid]	6.67	6.32	5.99	5.87	6.38	6.49	–	–	–	–
O=C(NO)c1cc(F)c(Cn2nnc(-c3ccccn3)n2)c(F)c1 [comp. 6, 3,5-difluoro-N-hydroxy-4-((5-(pyridin-2-yl)-2H-tetrazol-2-yl)methyl)benzamide]	6.12	5.98	4.56	4.96	5.99	5.98	–	< 5.00	96	85.6
Cn1c(Sc2c(F)cc(C(=O)NO)cc2F)nnc1-c1cccs1 [comp. 17, 3,5-difluoro-N-hydroxy-4-((4-methyl-5-(thiophen-2-yl)-4H-1,2,4-triazol-3-yl)thio)benzamide]	6.26	5.86	4.80	5.16	6.71	5.81	–	5.28	98	83
CCN(CC)S(=O)(=O)c1cccc(-c2nnc(Sc3ccc(C(=O)NO)cc3)n2N)c1 [comp. 61, 4-[[4-amino-5-[3-(diethylsulfamoyl)phenyl]-1,2,4-triazol-3-yl]sulfanyl]benzenecarbohydroxamic acid]	6.28	5.80	5.16	6.00	6.31	5.60	–	–	–	–
O=C(NO)c1ccc(Cc2nnc(-c3ccc(F)cc3F)o2)cc1 [comp. 58, 4-((5-(2,4-difluorophenyl)-1,3,4-oxadiazol-2-yl)methyl)-N-hydroxybenzamide]	5.82	5.41	5.76	6.23	6.00	5.43	–	–	–	–
CN(C)S(=O)(=O)c1cccc(-c2nnn(Cc3ccc(C(=O)NO)cc3)n2)c1 [comp. 59, 4-[[5-[3-(dimethylsulfamoyl)phenyl]tetrazol-2-yl]methyl]benzenecarbohydroxamic acid]	6.09	5.60	5.64	6.27	6.26	5.38	–	–	–	–

Further lines, with some results ahead:

pIC50 (HDAC7)	pIC50 (HDAC4)	pIC50 (HDAC2)	pIC50 (HDAC10)	pIC50 (HDAC8)	pIC50 (HDAC5)	residual percentage in human S9 fraction ([3]; human, 90 min, pH 7.4) [%]	Structure (SMILES)	pIC50 [1]	residual percentage in human plasma [2] [%]	residual percentage in human S9 fraction [3, 4] [%]
5.87	5.58	5.28	5.55	6.10	5.35	–	CN(C)c1cccc(-c2nnc(Sc3ccc(C(=O)NO)cc3)n2C)c1 [comp. 77, 4-[[5-[3-(dimethylamino)phenyl]-4-methyl-1,2,4-triazol-3-yl]sulfanyl]benzenecarbohydroxamic acid]	4.96	–	–
5.45	5.00	5.18	5.61	6.15	4.92	81	COc1ccc(C(=O)N[C@@H](Cc2cscn2)c2nc(Cc3ccc(C(=O)NO)cc3)no2)cc1OC [comp. 1, (S)—N-(1-(3-(4-(hydroxycarbamoyl)benzyl)-1,2,4-oxadiazol-5-yl)-2-(thiazol-4-yl)ethyl)-3,4-dimethoxybenzamide]	4.98	102	–
6.12	6.14	4.86	5.25	6.26	5.89	–	CN(C)c1cccc(-c2nnc(Sc3c(F)cc(C(=O)NO)cc3F)n2C)c1 [comp. 80, 4-[[5-[3-(dimethylamino)phenyl]-4-methyl-1,2,4-triazol-3-yl]sulfanyl]-3,5-difluoro-benzenecarbohydroxamic acid]	–	–	–
6.29	5.99	5.77	6.02	6.67	6.25	–	Cc1cc(-c2nnc(Sc3ccc(C(=O)NO)cc3)n2C)nn1C [comp. 85, 4-[[5-(1,5-dimethylpyrazol-3-yl)-4-methyl-1,2,4-triazol-3-yl]sulfanyl]benzenecarbohydroxamic acid]	5.94	–	–
